Consider twelve compounds from PMC5359624, “A structure- and chemical genomics-based approach for repositioning of drugs against VCP/p97 ATPase” (Scientific Reports, 2017).

“And” between values parts separate entries of the source, which are not always exact repeats. Equal values may be shown once. Residues, ends and D or L forms follow the SMILES beside them. *: point of attachment. Cbz = O=C(OCc1ccccc1)* A value given as a limit tells only on which side of the number the result lay.

What is called IC50 is the concentration that gives 50% inhibition.

One data set has as its system tumor growth. The note with it: 50 mg/kg, mice; cited from earlier work.
In another data set the target is E578Q VCP/p97 ATPase (Homo sapiens, UniProt P55072, E578Q). Kind of data set: In vitro ATPase assay, E578Q (D2 Walker B mutant, D1-active). The note with it: for IC50: 200 μM ATP, 8-dose titration. Format: biochemical. The source says:
(§1) In order to test direct inhibition of VCP/p97 ATPase activity by these compounds, we performed in vitro ATPase assays of the five UPS and VCP/p97 perturbing compounds to evaluate their inhibitory activity against VCP/p97.

The target of a further data set is E305Q VCP/p97 ATPase (Homo sapiens, UniProt P55072, E305Q). Kind of data set: In vitro ATPase assay, E305Q (D1 Walker B mutant, D2-active). Format: biochemical. The following applies: for IC50: 200 μM ATP, 8-dose titration.
Source text: as §1

A further data set has as its system NSCLC cells. Further details: method as in PMID 27333030. The note with it: sub-micromolar concentrations; cited from earlier work.
In a further data set the target is WT VCP/p97 ATPase (Homo sapiens, UniProt P55072). Kind of data set: In vitro ATPase assay, WT VCP/p97. Format: biochemical. The following applies: 200 μM ATP, 8-dose titration.
Source text: as §1

The conditions of data set [1]: cited from earlier work.
In data set [2] the test system is UbG76V-GFP (p97-dependent substrate). The experiment in a line: UbG76V-GFP degradation assay (dual-reporter HeLa cell line). The format is cell-based. The following applies: 160 min, HeLa dual-reporter cells. The protocol:
(§2) First, the activities of these compounds against VCP/p97 in a cell-based degradation assay[31] were evaluated. For this purpose, we used a dual-reporter system to monitor the ubiquitin-proteasome system (UPS) and VCP/p97 function in mammalian cells. This system comprises an ubiquitin fusion degradation (UFD) reporter Ub^G76V-GFP and the oxygen-dependent degradation domain of HIF1α fused to luciferase (ODD-Luc), a non-ERAD substrate for proteasomal degradation. Measurement of GFP and luciferase activity in response to a treatment allows to assess the effect on p97-dependent and p97-independent proteolysis.
(§3) A dual-reporter stable HeLa cell line was generated to monitor UPS function in mammalian cells. A ubiquitin fusion degradation (UFD) reporter Ub^G76V-GFP and an oxygen-dependent degradation domain of HIF1α fused to luciferase (ODD-Luc). […] Cells were seeded on 384-well plates (3000 cells/well) and grown for 18 h. Cells were treated with modified DMEM (without phenol red, folic acid, riboflavin, and vitamin B12) containing MG132 (4 μM) for 1 h and washed twice with pre-warmed PBS. […] Plates were imaged on the ImageXpress Micro microscope (Molecular Devices) after 160 min. Luciferase activity were measured by adding D-Luciferin (10 μl of 2.5 mg/mL in PBS) into each well containing 38 μl of medium and incubated at room temperature for 10 min. Use Synergy Neo (BioTek) to read Luciferase signal.

For data set [3], the system named is ODD-Luc (p97-independent proteasome substrate). The experiment in a line: ODD-Luc degradation assay (dual-reporter HeLa cell line). The format is cell-based. The note with it: HeLa dual-reporter cells. As to the method: as §2, §3
On the set-up of data set [4]: method as in PMID 23245311. The note with it: oral administration in mice; cited from earlier work.
Another data set concerns VCP. Further details: method as in PMID 23892893. The following applies: read-out: Experimental IC50; cited from earlier work.

Sequence of WT VCP/p97 ATPase (P55072 whole entry): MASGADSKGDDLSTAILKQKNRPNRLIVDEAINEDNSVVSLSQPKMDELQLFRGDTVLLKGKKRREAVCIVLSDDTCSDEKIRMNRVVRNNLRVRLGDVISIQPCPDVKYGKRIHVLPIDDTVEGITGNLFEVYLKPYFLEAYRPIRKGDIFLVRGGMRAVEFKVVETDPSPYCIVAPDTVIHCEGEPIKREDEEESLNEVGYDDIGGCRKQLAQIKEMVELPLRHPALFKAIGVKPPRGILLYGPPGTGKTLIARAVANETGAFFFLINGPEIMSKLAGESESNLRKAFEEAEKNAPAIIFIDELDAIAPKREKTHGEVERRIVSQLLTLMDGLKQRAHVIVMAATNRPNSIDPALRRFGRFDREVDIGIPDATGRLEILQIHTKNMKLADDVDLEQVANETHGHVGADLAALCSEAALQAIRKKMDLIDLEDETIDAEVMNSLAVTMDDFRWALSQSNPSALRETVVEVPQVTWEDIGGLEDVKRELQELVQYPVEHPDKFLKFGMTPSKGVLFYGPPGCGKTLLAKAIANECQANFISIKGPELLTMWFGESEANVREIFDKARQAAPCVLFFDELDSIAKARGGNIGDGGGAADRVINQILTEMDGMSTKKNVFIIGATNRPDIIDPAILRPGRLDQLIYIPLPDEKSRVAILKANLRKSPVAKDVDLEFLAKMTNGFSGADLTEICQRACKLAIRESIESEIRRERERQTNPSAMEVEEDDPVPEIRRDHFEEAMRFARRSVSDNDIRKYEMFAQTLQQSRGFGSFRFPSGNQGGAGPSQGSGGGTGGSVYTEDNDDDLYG
Sequence of E305Q VCP/p97 ATPase (P55072 whole entry E305Q): as the sequence (P55072 whole entry) above, with E305Q counted along it
Sequence of E578Q VCP/p97 ATPase (P55072 whole entry E578Q): as the sequence (P55072 whole entry) above, with E578Q counted along it

For the compound `COc1ccc(CCN2CCC(Nc3nc4ccccc4n3Cc3ccc(F)cc3)CC2)cc1` [Astemizole], in the data set on tumor growth, the tumor growth inhibition entry is recorded as “sufficient to inhibit tumor growth”. The IC50 against E578Q VCP/p97 ATPase was greater than 30 µM; at E305Q VCP/p97 ATPase it was greater than 30 µM; against WT VCP/p97 ATPase it was 25 µM. For the same compound, the “sensitization of NSCLC cells to chemotherapy” value in the data set on NSCLC cells is on record as “sensitized NSCLC cells to chemotherapy”.
Regarding `Clc1ccccc1C(c1ccccc1)(c1ccccc1)n1ccnc1` [Clotrimazole], the water solubility entry in [1] is on record as “poor”. The half-maximal inhibitory concentration (IC50) against E578Q VCP/p97 ATPase is 8 µM and 8.2 µM; on E305Q VCP/p97 ATPase it was 8 µM; on WT VCP/p97 ATPase it was 12 µM.
As for `c1ccc(CNc2nc(NCc3ccccc3)c3ccccc3n2)cc1` [DBeQ], the IC50 is 11 µM on E578Q VCP/p97 ATPase, 5.5 µM against E305Q VCP/p97 ATPase and 3 µM against WT VCP/p97 ATPase. The “IC50 increase against the D2 mutant relative to wild-type VCP/p97” value against E578Q VCP/p97 ATPase (E578Q vs WT) was 3.7 fold. Moreover, the “IC50 increase against the D1 mutant relative to wild-type VCP/p97” value on E305Q VCP/p97 ATPase (E305Q vs WT) is reported as 1.8 fold.
On to `CC(C)(C)c1ccc(C(=O)CCCN2CCC(OC(c3ccccc3)c3ccccc3)CC2)cc1` [Ebastine], for which the “sensitization of NSCLC cells to chemotherapy” value in the data set with NSCLC cells is “sensitized NSCLC cells to chemotherapy”.
For the compound `CC#CCC(C)[C@H](O)/C=C/[C@@H]1[C@H]2C/C(=C/CCCC(=O)O)C[C@H]2C[C@H]1O` (stereo partly drawn) [Iloprost], the concentration for half-maximal inhibition (IC50) in data set [2] (Homo sapiens) and in [3] (Homo sapiens) was greater than 40 µM throughout.
Take `CC(C)C[C@@H](C=O)NC(=O)[C@H](CC(C)C)NC(=O)[C@H](CC(C)C)NC(=O)OCc1ccccc1` [MG132] (Cbz-Leu-Leu-Leu-aldehyde): the IC50 in data set [2] (Homo sapiens) was 1.2 µM; in data set [3] (Homo sapiens), 4.4 µM.
Regarding `Cc1cc(OCc2nnc(SC3CCCC3)n2-c2cccnc2)ccc1-c1ccc(S(C)(=O)=O)cc1` [NMS-873], the figures for the IC50 (in [2]; in data set [3] (Homo sapiens); with VCP) were 1.4 µM, greater than 40 µM and 0.03 µM, respectively. Moreover, in [4], the bioavailability entry was “modest”. The systemic exposure result in data set [4] was “modest”.
For `O=C(Nc1ccc([N+](=O)[O-])cc1Cl)c1cc(Cl)ccc1O` [Niclosamide], the IC50 in data set [2] (Homo sapiens) and in [3] (Homo sapiens) was greater than 40 µM in each case.
On to `CC(C)(C)NC(=O)[C@@H]1C[C@@H]2CCCC[C@@H]2CN1C[C@@H](O)[C@H](Cc1ccccc1)NC(=O)[C@H](CC(N)=O)NC(=O)c1ccc2ccccc2n1` [Saquinavir], for which the IC50 is 10.7 µM in data set [2] (Homo sapiens); 20.8 µM in data set [3] (Homo sapiens); greater than 30 µM against E578Q VCP/p97 ATPase; greater than 30 µM at E305Q VCP/p97 ATPase; greater than 30 µM against WT VCP/p97 ATPase.
In the case of Ivermectin, the IC50 was 9.7 µM in [2]; greater than 40 µM in [3]; greater than 30 µM at E578Q VCP/p97 ATPase; greater than 30 µM against E305Q VCP/p97 ATPase; greater than 30 µM at WT VCP/p97 ATPase. Besides, the “IC50 WT VCP/p97 ATPase activity” value against WT VCP/p97 ATPase was “did not show activity”.
In the case of NMS-249, in the data set with VCP, the IC50 was 0.29 µM.
NMS-862: the IC50 in the data set with VCP was 2.66 µM.
